pEC50: −log10 of the molar value. Where two headings read alike, the source gives them in different places.
What was measured:
[1] = biological target: T1, AhR (Homo sapiens, UniProt P35869); assay: HT29 AhR Reporter Assay (HT29-Lucia AhR cells, QUANTI-Luc luminescence); assay type: cell-based; conditions: for pEC50: 18-24 h, EC50 = concentration to reach half of maximum efficacy of reference compound VAF347; for Emax: read-out: HT29 AhR % efficacy
T1 construct: HT29-Lucia AhR cells were purchased from Invivogen (cat #ht21-ahr); host or cells: HT29-Lucia AhR cells
T1 sequence (P35869 11-848): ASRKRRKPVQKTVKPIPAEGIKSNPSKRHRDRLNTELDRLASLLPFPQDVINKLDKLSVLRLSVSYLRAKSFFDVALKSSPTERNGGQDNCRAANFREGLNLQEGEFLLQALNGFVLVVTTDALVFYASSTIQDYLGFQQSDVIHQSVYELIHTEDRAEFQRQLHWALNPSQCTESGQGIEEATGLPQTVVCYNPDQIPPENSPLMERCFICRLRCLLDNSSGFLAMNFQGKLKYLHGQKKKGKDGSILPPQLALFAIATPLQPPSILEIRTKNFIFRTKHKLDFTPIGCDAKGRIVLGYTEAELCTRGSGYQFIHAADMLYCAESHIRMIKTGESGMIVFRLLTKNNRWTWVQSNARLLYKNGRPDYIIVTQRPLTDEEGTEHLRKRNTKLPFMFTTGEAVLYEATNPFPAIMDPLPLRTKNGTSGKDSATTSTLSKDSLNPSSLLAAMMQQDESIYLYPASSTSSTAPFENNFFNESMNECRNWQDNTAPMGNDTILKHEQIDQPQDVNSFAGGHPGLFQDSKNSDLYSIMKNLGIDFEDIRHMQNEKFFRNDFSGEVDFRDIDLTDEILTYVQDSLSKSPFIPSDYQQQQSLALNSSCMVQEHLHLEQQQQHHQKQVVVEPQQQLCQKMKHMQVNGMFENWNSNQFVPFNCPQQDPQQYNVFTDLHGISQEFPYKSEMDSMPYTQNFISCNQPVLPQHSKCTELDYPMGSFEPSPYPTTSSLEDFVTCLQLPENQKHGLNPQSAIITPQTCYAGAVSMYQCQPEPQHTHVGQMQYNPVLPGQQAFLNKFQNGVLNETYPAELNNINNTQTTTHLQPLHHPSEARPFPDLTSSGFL
Experimental: Biological Data 1: HT29 AhR Reporter Assay HT29-Lucia AhR cells were purchased from Invivogen (cat #ht21-ahr). […] The cell suspension was removed from growth medium and rinsed gently with pre-warmed PBS (10 mL). Pre-warmed Trypsin (1 mL) was added, and cells were held at 30° C. for about 5 min and then detached by pipette. The dissociated cell clumps were gently pipetted up and down. The cells were resuspended in pre-warmed detection medium (DMEM, 10% FBS (30 min at 56° C.), 100 U/ml penicillin, 100 μg/ml streptomycin, and test article or vehicle) and counted. A cell suspension of ˜500,000 cells/mL in Detection medium was prepared. […] Samples (20 μL/well) were pipetted into a 96-well white (opaque), and QUANTI-Luc™ (50 μL/well) was added. The plate was gently tapped and then read in a luminometer (0.1 s reading time).

[2] = Stability in human feces (azo reduction in feces homogenate); assay type: in vitro ADME; conditions: pH 6.8, 37° C., under nitrogen
Experimental: Biological Data 2: Stability in Human Feces
Accordingly, selected azo compounds of the invention were exposed to human feces under conditions suitable to promote azo reduction.
The human feces from two donors were homogenized in isotonic phosphate buffered saline (pH 6.8) with a ratio of 1:10 (w/v). The tubes were sealed using sealing film. Test article was dissolved in isotonic phosphate buffer (pH 6.8) to form a working solution of 20 μM (if the solubility allows). An aliquot of working solution (50 μL) was added to the human feces homogenate (50 μL) for each time point (0, 1, 2, 4, 6 and 24 h) in duplicate and placed under nitrogen for about 1 minute in order to exhaust air, and then incubated at 37° C. After incubation at each pre-set time point, 1000 μL acetonitrile containing internal standard w as added to each tube to quench reaction. Samples were vortexed and centrifuged at 3700 rpm for 10 min and the supernatant was transferred for analysis (and diluted where necessary). The concentrations of test article and its metabolite (example 3) in the supernatants were determined using LC-MS/MS method. Sulfasalazine was used as a positive control. All incubations were performed in duplicate.

[3] = HT29-Lucia AhR cells, % efficacy = 100%*(TA-BG)/(Ref-BG), Ref = VAF347

Row | pEC50 ([1]; HT29-Lucia AhR cells) | Emax [1, 3] [%] | % of parent remaining after incubation for 6 h [2] [%] | SMILES | Emax [1] [%]
1 | < 4.52 | 33 |  | Nc1cc(Nc2nccc(-c3ccccc3C(=O)O)n2)ccc1C(F)(F)F [Example 23, 2-(2-((3-amino-4-(trifluoromethyl)phenyl)amino)pyrimidin-4-yl)benzoic acid] | 
2 |  |  | 4 | O=C(O)c1cc(O)ccc1/N=N/c1ccccc1-c1ccnc(Nc2ccc(C(F)(F)F)cc2)n1 [Example 38, (E)-5-hydroxy-2-((2-(2-((4-(trifluoromethyl)phenyl)amino)pyrimidin-4-yl)phenyl)diazenyl)benzoic acid] | 
3 |  |  | 98 | COc1cc(/N=N/c2ccccc2-c2ccnc(Nc3ccc(C(F)(F)F)cc3)n2)ccc1C(=O)O [Example 42, (E)-2-methoxy-4-((2-(2-((4-(trifluoromethyl)phenyl)amino)pyrimidin-4-yl)phenyl)diazenyl)benzoic acid] | 
4 |  |  | 74 | COc1ccc(/N=N/c2ccccc2-c2ccnc(Nc3ccc(C(F)(F)F)cc3)n2)cc1C(=O)O [Example 43, (E)-2-methoxy-5-((2-(2-((4-(trifluoromethyl)phenyl)amino)pyrimidin-4-yl)phenyl)diazenyl)benzoic acid] | 
5 |  |  | 19 | O=C(O)c1ccc(O)c(/N=N/c2ccccc2-c2ccnc(Nc3ccc(C(F)(F)F)cc3)n2)c1 [Example 36, (E)-4-Hydroxy-3-((2-(2-((4-(trifluoromethyl)phenyl)amino)pyrimidin-4-yl)phenyl)diazenyl)benzoic acid] | 
6 | 7.59 | 100 |  | FC(F)(F)c1ccc(Nc2nccc(-c3cccc(Cl)c3)n2)cc1 [VAF347, reference compound] | 
7 |  |  | 74 | O=C(O)c1cc(/N=N/c2cccc(-c3ccnc(Nc4ccc(C(F)(F)F)cc4)n3)c2)ccc1O [Example 27, (E)-2-hydroxy-5-((3-(2-((4-(trifluoromethyl)phenyl)amino)pyrimidin-4-yl)phenyl)diazenyl)benzoic acid] | 
8 | 5.03 | 69 |  | Nc1ccc(CC(=O)O)c(-c2ccnc(Nc3ccc(C(F)(F)F)cc3)n2)c1 [Example 10, 2-(4-amino-2-(2-((4-(trifluoromethyl)phenyl)amino)pyrimidin-4-yl)phenyl)acetic acid] | 
9 |  |  | 22 | O=C(O)c1ccc(/N=N/c2ccccc2-c2ccnc(Nc3ccc(C(F)(F)F)cc3)n2)c(O)c1 [Example 40, (E)-3-hydroxy-4-((2-(2-((4-(trifluoromethyl)phenyl)amino)pyrimidin-4-yl)phenyl)diazenyl)benzoic acid] | 
10 | < 4.52 | 13 |  | Nc1ccc(-c2ccnc(Nc3ccc(C(F)(F)F)cc3)n2)c(C(=O)O)c1 [Example 8, 5-amino-2-(2-((4-(trifluoromethyl)phenyl)amino)pyrimidin-4-yl)benzoic acid] | 
11 | < 4.52 | 29 |  | Nc1ccc(C(=O)O)c(-c2ccnc(Nc3ccc(C(F)(F)F)cc3)n2)c1 [Example 7, 4-amino-2-(2-((4-(trifluoromethyl)phenyl)amino)pyrimidin-4-yl)benzoic acid] | 

More lines, now with the values behind:

Row | SMILES | pEC50 ([1]; HT29-Lucia AhR cells) | Emax [1, 3] [%] | % of parent remaining after incubation for 6 h [2] [%] | Emax [1] [%]
12 | Nc1cc(Nc2nccc(-c3cccc(Cl)c3)n2)ccc1C(F)(F)F [Example 22, N^1-(4-(3-chlorophenyl)pyrimidin-2-yl)-4-(trifluoromethyl)benzene-1,3-diamine] | 7.74 | 124 |  | 
13 | Nc1cccc(-c2ccnc(Nc3cccc(C(=O)O)c3)n2)c1 [Example 20, 3-((4-(3-aminophenyl)pyrimidin-2-yl)amino)benzoic acid] | < 4.52 | 13 |  | 
14 | Nc1cc(C(F)(F)F)ccc1Nc1nccc(-c2cccc(Cl)c2)n1 [Example 21, N^1-(4-(3-chlorophenyl)pyrimidin-2-yl)-4-(trifluoromethyl)benzene-1,2-diamine] | < 4.52 | 27 |  | 
15 | Nc1cccc(-c2ccnc(Nc3ccc(C(=O)O)cc3)n2)c1 [Example 18, 4-((4-(3-aminophenyl)pyrimidin-2-yl)amino)benzoic acid] | < 4.52 | 10 |  | 
16 | Oc1ccc(/N=N/c2ccccc2-c2ccnc(Nc3ccc(C(F)(F)F)cc3)n2)cc1 [Example 33, (E)-4-((2-(2-((4-(trifluoromethyl)phenyl)amino)pyrimidin-4-yl)phenyl)diazenyl)phenol] |  |  | 59 | 
17 | Nc1cc(Nc2nccc(-c3cccc(C(=O)O)c3)n2)ccc1C(F)(F)F [Example 24, 3-(2-((3-amino-4-(trifluoromethyl)phenyl)amino)pyrimidin-4-yl)benzoic acid] | < 4.52 | 5 |  | 
18 | Nc1ccccc1-c1ccnc(Nc2ccc(C(F)(F)F)cc2)n1 [Example 3, 4-(2-aminophenyl)-N-(4-(trifluoromethyl)phenyl)pyrimidin-2-amine] | 5.88 |  |  | 165
19 | Nc1ccc(-c2ccnc(Nc3ccc(C(F)(F)F)cc3)n2)cc1Cl [Example 5, 4-(4-amino-3-chlorophenyl)-N-(4-(trifluoromethyl)phenyl)pyrimidin-2-amine] | 4.70 | 46 |  | 
20 | CS(=O)(=O)c1ccc(N)cc1-c1ccnc(Nc2ccc(C(F)(F)F)cc2)n1 [Example 14, 4-(5-amino-2-(methylsulfonyl)phenyl)-N-(4-(trifluoromethyl)phenyl)pyrimidin-2-amine] | 4.77 |  |  | 51
21 | CS(=O)(=O)c1ccc(N)c(-c2ccnc(Nc3ccc(C(F)(F)F)cc3)n2)c1 [Example 13, 4-(2-amino-5-(methylsulfonyl)phenyl)-N-(4-(trifluoromethyl)phenyl)pyrimidin-2-amine] | < 4.52 |  |  | 7
22 | Nc1cccc(C(=O)O)c1-c1ccnc(Nc2ccc(C(F)(F)F)cc2)n1 [Example 9] | 5.58 |  |  | 89
23 | Nc1cc(Cl)cc(-c2ccnc(Nc3ccc(C(F)(F)F)cc3)n2)c1 [Example 6, 4-(3-amino-5-chlorophenyl)-N-(4-(trifluoromethyl)phenyl)pyrimidin-2-amine] | < 4.52 | 15 |  | 
24 | Nc1ccc(O)cc1-c1ccnc(Nc2ccc(C(F)(F)F)cc2)n1 [Example 12, 4-amino-3-(2-((4-(trifluoromethyl)phenyl)amino)pyrimidin-4-yl)phenol] | < 4.52 |  |  | 17
25 | Nc1ccc(O)c(-c2ccnc(Nc3ccc(C(F)(F)F)cc3)n2)c1 [Example 11, 4-amino-2-(2-((4-(trifluoromethyl)phenyl)amino)pyrimidin-4-yl)phenol] | < 4.52 |  |  | -17
26 | Nc1cccc(Nc2nccc(-c3ccccc3O)n2)c1 [Example 26, 2-(2-((3-aminophenyl)amino)pyrimidin-4-yl)phenol] | < 4.52 | 141 |  | 
27 | Nc1ccc(Cl)cc1-c1ccnc(Nc2ccc(C(F)(F)F)cc2)n1 [Example 4, 4-(2-amino-5-chlorophenyl)-N-(4-(trifluoromethyl)phenyl)pyrimidin-2-amine] | < 4.52 |  |  | 18
28 | Nc1ccc(-c2ccnc(Nc3ccc(C(F)(F)F)cc3)n2)cc1 [Example 1, 4-(4-aminophenyl)-N-(4-(trifluoromethyl)phenyl)pyrimidin-2-amine] | < 4.52 |  |  | 16
29 | Nc1ccc(Nc2nccc(-c3ccccc3O)n2)cc1 [Example 25, 2-(2-((4-aminophenyl)amino)pyrimidin-4-yl)phenol] | 5.16 | 21 |  | 

Source: US12168646B2, “Aryl hydrocarbon receptor agonists and uses thereof” (NEXYS THERAPEUTICS, INC., priority 2022, dated 2024)
